According to publication PMC4917279 (Journal of Medicinal Chemistry, 2016):

How the values were obtained:
[1] = target: T1, EGFR(L747-S752del, P753S) (Homo sapiens, UniProt P00533, DEL747-752/P753S); assay: KINOMEscan; assay type: binding; conditions: read-out: %Ctrl @ 1000 nM
T1 construct: purchased DiscoveRx KINOMEscan

PFCDPK1(P.falciparum) = target: T2, PFCDPK1(P.falciparum) (Plasmodium falciparum, UniProt P62344); assay: KINOMEscan; assay type: binding; conditions: read-out: %Ctrl @ 1000 nM
T2 construct: purchased DiscoveRx KINOMEscan

BRAF(V600E) = target: T3, BRAF(V600E) (Homo sapiens, UniProt P15056, V600E); assay: KINOMEscan; assay type: binding; conditions: read-out: %Ctrl @ 1000 nM
T3 construct: purchased DiscoveRx KINOMEscan

SMYD2 = SMYD2 (Homo sapiens, UniProt Q9NRG4); assay: Endogenous p53 methylation in KYSE-150 cells (Western blot); conditions: 5 days
CLK1 = target: T4, CLK1 (Homo sapiens, UniProt P49759); assay: KINOMEscan; assay type: binding; conditions: read-out: %Ctrl @ 1000 nM
T4 construct: purchased DiscoveRx KINOMEscan

CAMKK1 = target: T5, CAMKK1 (Homo sapiens, UniProt Q8N5S9); assay: KINOMEscan; assay type: binding; conditions: read-out: %Ctrl @ 1000 nM
T5 construct: purchased DiscoveRx KINOMEscan

[2] = target: T6, ABL1(F317L)-nonphosphorylated (Homo sapiens, UniProt P00519, F317L); assay: KINOMEscan; assay type: binding; conditions: read-out: %Ctrl @ 1000 nM
T6 construct: purchased DiscoveRx (KINOMEscan service)

CSNK1G1 = target: T7, CSNK1G1 (Homo sapiens, UniProt Q9HCP0); assay: KINOMEscan; assay type: binding; conditions: read-out: %Ctrl @ 1000 nM
T7 construct: purchased DiscoveRx KINOMEscan

NEK6 = target: T8, NEK6 (Homo sapiens, UniProt Q9HC98); assay: KINOMEscan; assay type: binding; conditions: read-out: %Ctrl @ 1000 nM
T8 construct: purchased DiscoveRx KINOMEscan

SRC = target: T9, SRC (Homo sapiens, UniProt P12931); assay: KINOMEscan; assay type: binding; conditions: read-out: %Ctrl @ 1000 nM
T9 construct: purchased DiscoveRx KINOMEscan

CDK4-cyclinD3 = target: T10, CDK4-cyclinD3 (Homo sapiens, UniProt P11802); assay: KINOMEscan; assay type: binding; conditions: read-out: %Ctrl @ 1000 nM
T10 construct: purchased DiscoveRx KINOMEscan

TNK1 = target: T11, TNK1 (Homo sapiens, UniProt Q13470); assay: KINOMEscan; assay type: binding; conditions: read-out: %Ctrl @ 1000 nM
T11 construct: purchased DiscoveRx KINOMEscan

PRKX = target: T12, PRKX (Homo sapiens, UniProt P51817); assay: KINOMEscan; assay type: binding; conditions: read-out: %Ctrl @ 1000 nM
T12 construct: purchased DiscoveRx KINOMEscan

CSNK1E = target: T13, CSNK1E (Homo sapiens, UniProt P49674); assay: KINOMEscan; assay type: binding; conditions: read-out: %Ctrl @ 1000 nM
T13 construct: purchased DiscoveRx KINOMEscan

LKB1 = target: T14, LKB1 (Homo sapiens, UniProt Q15831); assay: KINOMEscan; assay type: binding; conditions: read-out: %Ctrl @ 1000 nM
T14 construct: purchased DiscoveRx KINOMEscan

PLK1 = target: T15, PLK1 (Homo sapiens, UniProt P53350); assay: KINOMEscan; assay type: binding; conditions: read-out: %Ctrl @ 1000 nM
T15 construct: purchased DiscoveRx KINOMEscan

CDK3 = target: T16, CDK3 (Homo sapiens, UniProt Q00526); assay: KINOMEscan; assay type: binding; conditions: read-out: %Ctrl @ 1000 nM
T16 construct: purchased DiscoveRx KINOMEscan

BRAF = target: T17, BRAF (Homo sapiens, UniProt P15056); assay: KINOMEscan; assay type: binding; conditions: read-out: %Ctrl @ 1000 nM
T17 construct: purchased DiscoveRx KINOMEscan

MLK3 = target: T18, MLK3 (Homo sapiens, UniProt Q16584); assay: KINOMEscan; assay type: binding; conditions: read-out: %Ctrl @ 1000 nM
T18 construct: purchased DiscoveRx KINOMEscan

EPHA1 = target: T19, EPHA1 (Homo sapiens, UniProt P21709); assay: KINOMEscan; assay type: binding; conditions: read-out: %Ctrl @ 1000 nM
T19 construct: purchased DiscoveRx KINOMEscan

CDK8 = target: T20, CDK8 (Homo sapiens, UniProt P49336); assay: KINOMEscan; assay type: binding; conditions: read-out: %Ctrl @ 1000 nM
T20 construct: purchased DiscoveRx KINOMEscan

FYN = target: T21, FYN (Homo sapiens, UniProt P06241); assay: KINOMEscan; assay type: binding; conditions: read-out: %Ctrl @ 1000 nM
T21 construct: purchased DiscoveRx KINOMEscan

ROS1 = target: T22, ROS1 (Homo sapiens, UniProt P08922); assay: KINOMEscan; assay type: binding; conditions: read-out: %Ctrl @ 1000 nM
T22 construct: purchased DiscoveRx KINOMEscan

HIPK3 = target: T23, HIPK3 (Homo sapiens, UniProt Q9H422); assay: KINOMEscan; assay type: binding; conditions: read-out: %Ctrl @ 1000 nM
T23 construct: purchased DiscoveRx KINOMEscan

BRSK2 = target: T24, BRSK2 (Homo sapiens, UniProt Q8IWQ3); assay: KINOMEscan; assay type: binding; conditions: read-out: %Ctrl @ 1000 nM
T24 construct: purchased DiscoveRx KINOMEscan

DCAMKL2 = target: T25, DCAMKL2 (Homo sapiens, UniProt Q8N568); assay: KINOMEscan; assay type: binding; conditions: read-out: %Ctrl @ 1000 nM
T25 construct: purchased DiscoveRx KINOMEscan

p38-delta = target: T26, p38-delta (Homo sapiens, UniProt O15264); assay: KINOMEscan; assay type: binding; conditions: read-out: %Ctrl @ 1000 nM
T26 construct: purchased DiscoveRx KINOMEscan

YSK1 = target: T27, YSK1 (Homo sapiens, UniProt O00506); assay: KINOMEscan; assay type: binding; conditions: read-out: %Ctrl @ 1000 nM
T27 construct: purchased DiscoveRx

ADCK3 = target: T28, ADCK3 (Homo sapiens, UniProt Q8NI60); assay: KINOMEscan; assay type: binding; conditions: read-out: %Ctrl @ 1000 nM
T28 construct: purchased DiscoveRx KINOMEscan

CDK11 = target: T29, CDK11 (Homo sapiens, UniProt Q9BWU1); assay: KINOMEscan; assay type: binding; conditions: read-out: %Ctrl @ 1000 nM
T29 construct: purchased DiscoveRx KINOMEscan

FER = target: T30, FER (Homo sapiens, UniProt P16591); assay: KINOMEscan; assay type: binding; conditions: read-out: %Ctrl @ 1000 nM
T30 construct: purchased DiscoveRx KINOMEscan

RIPK2 = target: T31, RIPK2 (Homo sapiens, UniProt O43353); assay: KINOMEscan; assay type: binding; conditions: read-out: %Ctrl @ 1000 nM
T31 construct: purchased DiscoveRx KINOMEscan

CDC2L2 = target: T32, CDC2L2 (Homo sapiens, UniProt Q9UQ88); assay: KINOMEscan; assay type: binding; conditions: read-out: %Ctrl @ 1000 nM
T32 construct: purchased DiscoveRx KINOMEscan

VRK2 = target: T33, VRK2 (Homo sapiens, UniProt Q86Y07); assay: KINOMEscan; assay type: binding; conditions: read-out: %Ctrl @ 1000 nM
T33 construct: purchased DiscoveRx KINOMEscan

WNK1 = target: T34, WNK1 (Homo sapiens, UniProt Q9H4A3); assay: KINOMEscan; assay type: binding; conditions: read-out: %Ctrl @ 1000 nM
T34 construct: purchased DiscoveRx KINOMEscan

MRCKB = target: T35, MRCKB (Homo sapiens, UniProt Q9Y5S2); assay: KINOMEscan; assay type: binding; conditions: read-out: %Ctrl @ 1000 nM
T35 construct: purchased DiscoveRx KINOMEscan

KIT(V559D,V654A) = target: T36, KIT(V559D,V654A) (Homo sapiens, UniProt P10721, V559D/V654A); assay: KINOMEscan; assay type: binding; conditions: read-out: %Ctrl @ 1000 nM
T36 construct: purchased DiscoveRx KINOMEscan

PIK3CA(E545A) = target: T37, PIK3CA(E545A) (Homo sapiens, UniProt P42336, E545A); assay: KINOMEscan; assay type: binding; conditions: read-out: %Ctrl @ 1000 nM
T37 construct: purchased DiscoveRx KINOMEscan

LTK = target: T38, LTK (Homo sapiens, UniProt P29376); assay: KINOMEscan; assay type: binding; conditions: read-out: %Ctrl @ 1000 nM
T38 construct: purchased DiscoveRx KINOMEscan

HUNK = target: T39, HUNK (Homo sapiens, UniProt P57058); assay: KINOMEscan; assay type: binding; conditions: read-out: %Ctrl @ 1000 nM
T39 construct: purchased DiscoveRx KINOMEscan

ASK1 = target: T40, ASK1 (Homo sapiens, UniProt Q99683); assay: KINOMEscan; assay type: binding; conditions: read-out: %Ctrl @ 1000 nM
T40 construct: purchased DiscoveRx KINOMEscan

PHKG1 = target: T41, PHKG1 (Homo sapiens, UniProt Q16816); assay: KINOMEscan; assay type: binding; conditions: read-out: %Ctrl @ 1000 nM
T41 construct: purchased DiscoveRx KINOMEscan

RET = target: T42, RET (Homo sapiens, UniProt P07949); assay: KINOMEscan; assay type: binding; conditions: read-out: %Ctrl @ 1000 nM
T42 construct: purchased DiscoveRx KINOMEscan

T22 sequence (P08922 28-2347): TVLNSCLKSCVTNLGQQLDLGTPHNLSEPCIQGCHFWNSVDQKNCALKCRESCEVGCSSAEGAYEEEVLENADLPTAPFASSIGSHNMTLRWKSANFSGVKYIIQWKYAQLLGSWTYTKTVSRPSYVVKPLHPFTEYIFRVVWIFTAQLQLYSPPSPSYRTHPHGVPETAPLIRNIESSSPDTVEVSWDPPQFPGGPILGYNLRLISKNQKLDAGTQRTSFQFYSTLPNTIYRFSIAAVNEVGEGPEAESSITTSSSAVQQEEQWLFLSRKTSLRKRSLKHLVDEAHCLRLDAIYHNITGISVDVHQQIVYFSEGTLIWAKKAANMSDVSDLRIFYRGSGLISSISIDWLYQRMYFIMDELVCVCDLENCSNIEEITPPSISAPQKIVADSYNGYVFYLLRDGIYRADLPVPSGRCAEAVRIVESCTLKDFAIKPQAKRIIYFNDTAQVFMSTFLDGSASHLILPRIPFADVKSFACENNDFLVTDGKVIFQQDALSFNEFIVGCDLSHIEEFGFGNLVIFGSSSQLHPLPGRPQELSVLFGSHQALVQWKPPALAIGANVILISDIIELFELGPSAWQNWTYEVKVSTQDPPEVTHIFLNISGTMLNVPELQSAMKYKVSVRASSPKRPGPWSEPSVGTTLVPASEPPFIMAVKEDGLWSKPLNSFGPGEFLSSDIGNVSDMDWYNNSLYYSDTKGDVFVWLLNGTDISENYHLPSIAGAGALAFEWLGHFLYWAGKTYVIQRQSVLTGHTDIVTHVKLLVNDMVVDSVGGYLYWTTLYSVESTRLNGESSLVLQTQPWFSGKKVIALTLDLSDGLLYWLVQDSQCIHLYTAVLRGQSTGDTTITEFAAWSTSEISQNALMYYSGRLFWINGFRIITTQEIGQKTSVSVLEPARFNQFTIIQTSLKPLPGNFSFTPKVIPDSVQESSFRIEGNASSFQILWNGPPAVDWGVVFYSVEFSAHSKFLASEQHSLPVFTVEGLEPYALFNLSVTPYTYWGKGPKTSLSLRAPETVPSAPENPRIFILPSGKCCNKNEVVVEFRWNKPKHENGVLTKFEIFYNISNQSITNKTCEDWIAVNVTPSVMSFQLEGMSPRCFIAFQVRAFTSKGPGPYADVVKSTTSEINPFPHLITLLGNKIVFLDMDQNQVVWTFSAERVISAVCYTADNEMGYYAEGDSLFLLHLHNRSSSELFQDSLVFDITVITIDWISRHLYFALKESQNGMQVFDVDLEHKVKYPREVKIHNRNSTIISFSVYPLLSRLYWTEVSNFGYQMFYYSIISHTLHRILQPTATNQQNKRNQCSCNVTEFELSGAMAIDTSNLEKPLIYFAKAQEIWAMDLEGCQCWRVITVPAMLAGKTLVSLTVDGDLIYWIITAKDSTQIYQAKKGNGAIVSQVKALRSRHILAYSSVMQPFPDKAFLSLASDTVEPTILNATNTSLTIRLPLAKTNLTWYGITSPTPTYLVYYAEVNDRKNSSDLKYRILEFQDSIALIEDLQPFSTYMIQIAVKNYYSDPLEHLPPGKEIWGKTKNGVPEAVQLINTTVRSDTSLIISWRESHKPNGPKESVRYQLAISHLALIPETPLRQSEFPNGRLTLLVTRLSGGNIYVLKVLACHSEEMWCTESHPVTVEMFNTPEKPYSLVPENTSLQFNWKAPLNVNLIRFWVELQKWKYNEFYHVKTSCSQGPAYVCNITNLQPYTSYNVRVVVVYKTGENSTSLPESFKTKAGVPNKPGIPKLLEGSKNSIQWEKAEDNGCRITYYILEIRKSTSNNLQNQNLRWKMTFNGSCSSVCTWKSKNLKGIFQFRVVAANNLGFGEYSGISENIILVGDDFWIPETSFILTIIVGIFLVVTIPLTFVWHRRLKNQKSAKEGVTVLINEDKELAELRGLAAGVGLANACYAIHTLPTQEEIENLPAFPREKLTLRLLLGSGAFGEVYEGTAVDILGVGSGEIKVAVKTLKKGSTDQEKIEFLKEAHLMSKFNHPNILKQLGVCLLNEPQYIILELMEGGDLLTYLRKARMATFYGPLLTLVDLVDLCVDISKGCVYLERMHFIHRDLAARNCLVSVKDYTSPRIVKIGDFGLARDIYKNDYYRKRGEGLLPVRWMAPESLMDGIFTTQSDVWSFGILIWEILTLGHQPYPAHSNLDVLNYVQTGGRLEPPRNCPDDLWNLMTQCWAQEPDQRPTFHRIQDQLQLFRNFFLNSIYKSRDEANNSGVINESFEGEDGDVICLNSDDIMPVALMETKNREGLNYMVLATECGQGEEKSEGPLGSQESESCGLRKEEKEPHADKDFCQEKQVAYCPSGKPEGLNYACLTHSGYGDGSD
T12 sequence (P51817 whole entry): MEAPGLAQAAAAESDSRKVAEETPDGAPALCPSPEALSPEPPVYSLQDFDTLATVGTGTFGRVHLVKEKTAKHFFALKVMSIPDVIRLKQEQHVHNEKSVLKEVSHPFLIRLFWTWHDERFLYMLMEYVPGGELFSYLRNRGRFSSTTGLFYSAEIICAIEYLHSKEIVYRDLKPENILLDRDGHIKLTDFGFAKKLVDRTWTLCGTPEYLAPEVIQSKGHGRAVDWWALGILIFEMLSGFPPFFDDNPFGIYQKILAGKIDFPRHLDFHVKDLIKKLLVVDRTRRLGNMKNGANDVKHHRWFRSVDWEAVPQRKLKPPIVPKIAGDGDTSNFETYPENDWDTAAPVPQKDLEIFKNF
T33 sequence (Q86Y07 whole entry): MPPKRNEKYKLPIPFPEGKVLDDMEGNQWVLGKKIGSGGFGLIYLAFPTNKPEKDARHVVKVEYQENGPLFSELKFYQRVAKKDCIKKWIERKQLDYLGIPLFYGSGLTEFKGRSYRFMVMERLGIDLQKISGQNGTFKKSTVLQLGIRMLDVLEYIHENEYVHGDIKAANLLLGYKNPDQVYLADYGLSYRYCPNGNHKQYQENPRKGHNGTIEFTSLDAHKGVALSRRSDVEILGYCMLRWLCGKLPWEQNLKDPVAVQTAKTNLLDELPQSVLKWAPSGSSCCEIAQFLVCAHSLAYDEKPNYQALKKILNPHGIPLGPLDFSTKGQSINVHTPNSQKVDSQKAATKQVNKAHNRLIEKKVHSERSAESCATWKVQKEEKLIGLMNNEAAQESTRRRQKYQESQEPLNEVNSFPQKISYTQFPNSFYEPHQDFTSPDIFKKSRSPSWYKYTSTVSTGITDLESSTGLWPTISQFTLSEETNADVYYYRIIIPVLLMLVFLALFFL
T17 sequence (P15056 whole entry): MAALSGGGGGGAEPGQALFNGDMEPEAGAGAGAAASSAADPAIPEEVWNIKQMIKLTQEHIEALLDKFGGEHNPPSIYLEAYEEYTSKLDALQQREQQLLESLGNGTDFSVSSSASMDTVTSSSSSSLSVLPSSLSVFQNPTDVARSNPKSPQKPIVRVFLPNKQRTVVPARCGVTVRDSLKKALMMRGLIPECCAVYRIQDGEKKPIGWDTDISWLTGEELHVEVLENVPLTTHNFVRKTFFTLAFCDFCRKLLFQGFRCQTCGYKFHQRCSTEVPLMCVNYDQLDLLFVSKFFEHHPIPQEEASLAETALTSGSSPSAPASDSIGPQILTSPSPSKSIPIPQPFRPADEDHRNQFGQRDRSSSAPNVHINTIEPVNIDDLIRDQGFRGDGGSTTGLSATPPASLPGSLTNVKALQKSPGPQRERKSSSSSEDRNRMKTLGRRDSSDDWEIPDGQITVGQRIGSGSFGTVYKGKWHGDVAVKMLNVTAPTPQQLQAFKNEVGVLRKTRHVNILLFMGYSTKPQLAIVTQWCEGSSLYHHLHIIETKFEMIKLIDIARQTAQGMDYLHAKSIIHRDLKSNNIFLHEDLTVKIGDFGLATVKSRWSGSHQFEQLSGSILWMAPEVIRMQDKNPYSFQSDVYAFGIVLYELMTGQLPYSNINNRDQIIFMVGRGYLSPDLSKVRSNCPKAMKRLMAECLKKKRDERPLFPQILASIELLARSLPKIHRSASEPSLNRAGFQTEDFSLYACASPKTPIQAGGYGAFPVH
T26 sequence (O15264 whole entry): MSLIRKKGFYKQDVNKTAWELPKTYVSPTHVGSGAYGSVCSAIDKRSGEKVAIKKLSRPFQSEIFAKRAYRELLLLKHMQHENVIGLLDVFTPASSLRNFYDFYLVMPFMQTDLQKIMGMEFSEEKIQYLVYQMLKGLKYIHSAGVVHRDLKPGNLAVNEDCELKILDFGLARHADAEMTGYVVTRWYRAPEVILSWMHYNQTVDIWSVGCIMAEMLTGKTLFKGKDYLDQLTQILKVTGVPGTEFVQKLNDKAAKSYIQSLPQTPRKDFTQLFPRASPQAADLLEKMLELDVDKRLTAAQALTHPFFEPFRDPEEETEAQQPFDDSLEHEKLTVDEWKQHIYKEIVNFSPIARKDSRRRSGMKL
T1 sequence (P00533 with tags, fused parts or gaps DEL747-752/P753S limits assumed): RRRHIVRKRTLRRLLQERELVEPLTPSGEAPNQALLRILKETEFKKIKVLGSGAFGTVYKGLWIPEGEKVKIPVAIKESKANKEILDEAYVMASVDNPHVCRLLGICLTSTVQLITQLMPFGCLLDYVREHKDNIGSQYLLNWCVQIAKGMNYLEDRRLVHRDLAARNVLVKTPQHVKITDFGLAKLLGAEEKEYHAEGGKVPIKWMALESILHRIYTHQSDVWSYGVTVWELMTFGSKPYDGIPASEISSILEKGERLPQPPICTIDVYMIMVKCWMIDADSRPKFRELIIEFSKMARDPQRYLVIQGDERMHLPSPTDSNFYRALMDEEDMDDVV
T13 sequence (P49674 whole entry): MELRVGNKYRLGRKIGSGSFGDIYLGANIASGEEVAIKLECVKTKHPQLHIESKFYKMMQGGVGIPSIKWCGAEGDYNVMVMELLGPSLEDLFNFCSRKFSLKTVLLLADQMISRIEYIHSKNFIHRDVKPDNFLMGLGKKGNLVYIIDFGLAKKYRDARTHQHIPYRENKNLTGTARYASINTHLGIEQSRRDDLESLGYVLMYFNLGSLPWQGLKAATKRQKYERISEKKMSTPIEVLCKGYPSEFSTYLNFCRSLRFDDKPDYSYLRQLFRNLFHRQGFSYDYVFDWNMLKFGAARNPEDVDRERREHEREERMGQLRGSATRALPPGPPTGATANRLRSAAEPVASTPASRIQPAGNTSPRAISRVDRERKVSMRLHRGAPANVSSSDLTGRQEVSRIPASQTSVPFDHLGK

Work on `CCN(C(=O)CO)[C@H]1CN(/C(=N\C#N)Nc2cccc(OC(F)F)c2)N=C1c1ccc(Cl)c(Cl)c1` [(S)-4] yielded a remaining binding at 1 µM [1] of 86%, a remaining binding at 1 µM (PFCDPK1(P.falciparum)) of 76% and a remaining binding at 1 µM (BRAF(V600E)) of 100%. The “Endogenous p53 methylation” value (SMYD2) was “significant reduction of methylation”, the remaining binding at 1 µM (CLK1) was 78% and the remaining binding at 1 µM (CAMKK1) was 84%. For the same compound, the remaining binding at 1 µM [2] was 100%, the remaining binding at 1 µM (CSNK1G1) was 84% and the remaining binding at 1 µM (NEK6) was 91%. For the same compound, the remaining binding at 1 µM (SRC) was 79%, the remaining binding at 1 µM (CDK4-cyclinD3) was 100% and the remaining binding at 1 µM (TNK1) was 66%. For the same compound, the remaining binding at 1 µM (PRKX) was 100%, the remaining binding at 1 µM (CSNK1E) was 86% and the remaining binding at 1 µM (LKB1) was 83%. It also gave a remaining binding at 1 µM (PLK1) of 100%, a remaining binding at 1 µM (CDK3) of 91% and a remaining binding at 1 µM (BRAF) of 100%. The remaining binding at 1 µM (MLK3) was 69%, the remaining binding at 1 µM (EPHA1) was 86% and the remaining binding at 1 µM (CDK8) was 92%. It also gave a remaining binding at 1 µM (FYN) of 71%, a remaining binding at 1 µM (ROS1) of 68% and a remaining binding at 1 µM (HIPK3) of 100%. It also gave a remaining binding at 1 µM (BRSK2) of 74%, a remaining binding at 1 µM (DCAMKL2) of 93% and a remaining binding at 1 µM (p38-delta) of 72%. It also gave a remaining binding at 1 µM (YSK1) of 90%, a remaining binding at 1 µM (ADCK3) of 98% and a remaining binding at 1 µM (CDK11) of 85%. It also gave a remaining binding at 1 µM (FER) of 68%, a remaining binding at 1 µM (RIPK2) of 75% and a remaining binding at 1 µM (CDC2L2) of 92%. For the same compound, the remaining binding at 1 µM (VRK2) was 93%, the remaining binding at 1 µM (WNK1) was 100% and the remaining binding at 1 µM (MRCKB) was 100%. It also gave a remaining binding at 1 µM (KIT(V559D,V654A)) of 100%, a remaining binding at 1 µM (PIK3CA(E545A)) of 53% and a remaining binding at 1 µM (LTK) of 65%. It also gave a remaining binding at 1 µM (HUNK) of 94%, a remaining binding at 1 µM (ASK1) of 88% and a remaining binding at 1 µM (PHKG1) of 97%. It also gave a remaining binding at 1 µM (RET) of 91%.
